According to patent US7820636B2, “Sugar intake promoters” (Otsuka Pharmaceutical Co., Ltd., priority 2001, dated 2010):

Test system: human epidermal keratinocytes
Assay: 3H-2-deoxyglucose uptake in epidermal keratinocytes
Type: cell-based
Details: for promotion effect relative to that of adenosine at the same concentration: p<0.05; for action of promoting epidermal keratinocytic glucose uptake (qualitative): FIG. 1
Description: The influence of purine base on glucose uptake in epidermal keratinocytes was examined using adenosine 5′-phosphate-2Na (AMP-2Na), adenosine and inosine as test compounds. As a control, the experiment was carried out in a similar manner without using the test compound.
Human epidermal keratinocyates (normal human neonatal foreskin epidermal keratinocytes, “Epidercell NHEK(F)”, product of Kurabo industries, Ltd.) were initially cultured in a 10-cm petri dish and stored in a frozen state until use. At the time of use, the cryopreserved cells were cultured on a 24-well plate for about 6 to 7 days and subjected to this experiment when the cells were 70-80% confluent.
A glucose-free medium was prepared by adding to a serum-free medium for the growth of epidermal keratinocytes (“HuMedia-KG2”, special ordered medium, product of Kurabo Industries, Ltd.) 1 ml of calcium solution and 0.1 ml of phenol red packaged with the medium product. Bovine serum albumin (BSA) treated with activated carbon to remove impurities was added to the medium to become a concentration of 1% and the medium was adjusted to pH 7.4 with NaOH.
1 ml of 10 mM 2-deoxyglucose, 60 μl of 250 μCi/250 μl ^3H-2-deoxyglucose and 940 μl of 1% BSA/glucose-free medium (pH 7.4) were mixed.
Epidermal keratinocytes cultured in a 24-well plate were washed with PBS(−) (Ca^2+ and Mg^2+ free phosphate buffered saline) three times. After addition of serum-free medium for the growth of epidermal keratinocytes (“HuMedia-KG2”, special ordered medium, product of Kurabo Industries, Ltd.), the cells were cultured for 2 hours and then washed with PBS(−) three times. After addition of 1 ml of 1% BSA/glucose-free medium (pH 7.4) in which the test compound was dissolved, the cells were cultured for 30 minutes and then 20 μl of ^3H-2-deoxyglucose solution was added per ml of the medium. The cells were allowed to stand for 10 minutes and then washed with ice-cooled glucose-containing PBS(−) three times. After addition of 0.5 ml of 0.1N NaOH containing 0.1% SDS, the cells ware allowed to stand in a static condition for at least 2 hours to produce a cell lysate solution. 0.5 ml of 0.11N HCl containing 0.1% SDS was added to acidify the cell lysis solution. 80 μl of the cell lysate solution was used for protein assay (“DC Protein Assay”, product of Bio-Rad), and 750 μl of the same was placed into a glass bottle. 20 ml of a liquid scintillation cocktail (ACS-II, product of Amersham) was added. After gently stirring the mixture, radioactivity was assayed using the liquid scintillation counter. The radioactivity per unit amount of protein was determined from the measured radioactivity and the amount of ^3H-2-deoxyglucose uptake (H-DPM (μg)/μg protein) was calculated by subtracting the radioactivity due to non-specific 3H-2-deoxyglucose uptake.
The above experiment was carried out twice and the mean averages were calculated. For comparison with the control, each value was converted to a ratio to the control value set as 1. […] In FIG. 1, the abscissa designates the concentration (log M) of each purine base (AMP-2Na, adenosine, inosine), and the ordinate designates the ratio of cellular 2-deoxyglucose uptake amount (H-DPM (μg)/μg protein) relative to the control set as 1.

Row | SMILES | promotion of glucose uptake relative to control (ratio, control = 1) (10^-5 M, first experiment) | promotion of glucose uptake relative to control (ratio, control = 1) (10^-5 M, second experiment) | promotion of glucose uptake relative to control (ratio, control = 1) (10^-6 M, first experiment) | promotion effect relative to that of adenosine at the same concentration (10^-6 M, first experiment) | promotion of glucose uptake relative to control (ratio, control = 1) (10^-6 M, second experiment) | promotion effect relative to that of adenosine at the same concentration (10^-6 M, second experiment) | glucose uptake promotion compared with inosine (qualitative) (low concentration (10^-7 M)) | action of promoting epidermal keratinocytic glucose uptake (qualitative)
1 | Nc1ncnc2c1ncn2[C@@H]1O[C@H](COP(=O)([O-])[O-])[C@@H](O)[C@H]1O.[Na+].[Na+] [AMP-2Na, adenosine 5′-phosphate-2Na] | about 1.61 times | about 1.43 times | about 1.48 times | about 1.16 times | about 1.48 times | about 1.32 times | promotes glucose uptake more effectively than inosine | 
2 | Nc1ncnc2c1ncn2[C@@H]1O[C@H](CO)[C@@H](O)[C@H]1O [adenosine] |  |  |  |  |  |  |  | have the action of promoting epidermal keratinocytic glucose uptake
3 | OC[C@H]1O[C@@H](n2cnc3c(O)ncnc32)[C@H](O)[C@@H]1O [inosine] |  |  |  |  |  |  |  | have the action of promoting epidermal keratinocytic glucose uptake
